Experimental data reported in patent US9788539B2, “Platelet protection solution having beta-galactosidase and sialidase inhibitors” (Velico Medical, Inc., priority 2011, dated 2017).
Entries after “also recorded” stand apart in the source; their conditions may differ.

How the values were obtained:
mouse platelets [1] = experiment: Sialidase-induced β-galactose exposure on platelets, lectin binding by flow cytometry; format: cell-based; settings: mouse platelets, 5 mU α2-3,6,8,9-sialidase
[2] = tested on: platelet GPIbα and GPV receptor surface expression; experiment: Recombinant TACE-mediated GPIbα and GPV shedding from platelets; format: cell-based, mouse; settings: GPIbα and GPV; GM6001 100 μM on sialidase-treated platelets
[3] = tested on: Serratia marcescens strain (ATCC #43862); experiment: Planktonic growth of S. marcescens in 96-well PVC plate; format: cell-based; settings: 1 mM DANA, 48 h, 30% plasma in PAS, 30% PC in PAS or 100% plasma
Description: Serratia marcescens strain (ATCC #43862) was purchased from American Type Culture Collection (Manassas, Va.). Cells were grown in brain-heart infusion broth (ATCC media 3) at 37° C. and 250 rpm. Frozen stocks were prepared from overnight culture and stored at −80° C. in brain-heart infusion broth containing 15% glycerol by volume. To prepare the seed culture, the cryostock of Serratia marcescens was inoculated into 3 mL of brain-heart infusion broth with a cotton swab and incubated at 37° C. with agitation at 250 rpm for 6 h. The cell density was determined at 600 nm on a dual wavelength spectrometer and diluted to 0.5 McFarland Standard (1.5×10^8 cells/mL) with sterile PBS. Ten μL of the diluted culture was inoculated into 140 μL of 30% plasma in PAS, 30% PC by volume in PAS or 100% plasma, supplemented with or without 1 mM DANA, in the wells of 96-well PVC plates (Corning Biosciences). For each media, six replicates were performed. Ten μL of PBS was inoculated into the control wells. The microtiter plates were then sealed with sterile porous film (VWR) and placed on a platform shaker. The cultures were incubated for 48 h with gentle shaking (˜100 rpm). […] The crystal violet retained by the biofilm was eluted with 200 μL of dimethyl sulfoxide (DMSO) or 30% acetic acid, and read at 595 nm.

human platelets = experiment: Human platelets stored in plasma at RT, P-selectin surface expression (CD62P-FITC); format: cell-based; settings: stored in plasma with DANA
mouse platelets [4] = experiment: In vivo survival of biotinylated platelets after injection of sialidase inhibitor; settings: mice injected with 100 mM DANA vs PBS
Description: These studies then addressed whether inhibition of sialidase activity in vivo has an effect on platelet survival. […] Mice were injected with 100 mM DANA or PBS (phosphate buffered saline) as a control, after in vivo platelet biotinylation.

CC(=O)NC1C(O)C=C(C(=O)O)OC1C(O)C(O)CO (stereo not drawn) [DANA]
β-galactose exposure induced by sialidase in presence of inhibitor (mouse platelets [1]): completely inhibited; also recorded: inhibits the exposure of β-galactose
receptor shedding by rTACE in presence of inhibitor [2]: completely prevented
bacterial growth (planktonic cell density) [3]: inhibited the bacterial growth under all conditions
exposure of P-selectin (human platelets): significantly prevented the exposure of P-selectin
α-granule release (human platelets): inhibited α-granule release
survival of biotinylated platelets in vivo (mouse platelets [4]): increases mouse platelet life span in vivo; also recorded: increases the survival
